Experimental data as given in patent publication US20230405130A1, “COMPOSITIONS AND METHODS FOR MODIFYING BACTERIAL GENE EXPRESSION” (priority 2020, published 2023).

Assays:
dnaE = dnaE expression after anti-dnaE oligonucleotide treatment (immunoblotting); format: cell-based, C. difficile; settings: FIG. 2
Description: Studies were performed to identify C. difficile gene targets with the least pathway redundancy, while ensuring ASO specificity (oligonucleotides ≥25 bp in length). […] Five candidate C. difficile gene targets were identified, and dnaE (which encodes the alpha subunit of DNA polymerase III, and is invariant in C. difficile strains) harbored the most favorable translation inhibition potential (confirmed via immunoblotting; FIG. 2). Thus, it was used in further experiments. Specifically, the ASO formulation is a 2′-O-methyl phosphorothioate (PTO) gapmer, which has a good safety record (Shen et al., Antisense Nucleic Acid Drug Dev. 2001 August; 11(4):257-64; Chen et al., Transplantation. 2005 Feb. 27; 79(4):401-8; Nomura et al., Int J Pharm. 2018 Aug. 25; 547(1-2):556-562.).

[1] = system: cultured human intestinal epithelial cells; experiment: Toxicity to cultured human intestinal epithelial cells; format: cell-based; settings: at the doses used for C. difficile inhibition
E. faecalis = experiment: In vitro growth of commensal bacteria: E. faecalis; format: cell-based; settings: only at >17× the dosing range to treat C. difficile
Description: (§1) Nanocomplex CAB-964 was complexed to the anti-dnaE ASO (SEQ ID NO:1) as previously described (Hegarty et al., Int J Nanomedicine. 2016 Aug. 1; 11:3607-19; Sharma et al., J Antibiot (Tokyo). 2018 August; 71(8):713-721; herein incorporated by reference in its entirety) and the resulting nanocomplex is called SRPNT. Multiple in vitro tests were performed with SRPNT as well as its parent empty CAB, with CAB CYDE-21 and its derived nanocomplex as comparators. For the pathogen (Hegarty 2016, supra; Sharma 2018, supra) a whole genome-sequenced Ribotype 027 C. difficile strain associated with severe, complicated CDI in human subjects was used.

B. fragilis = experiment: In vitro growth of commensal bacteria: B. fragilis; format: cell-based; settings: only at >17× the dosing range to treat C. difficile
Description: as §1

[2] = system: Ribotype 027 C. difficile strain; experiment: In vitro anti-C. difficile activity / MIC; format: cell-based; settings: FIG. 3 legend
Description: as §1

E. coli = experiment: In vitro growth of commensal bacteria: E. coli; format: cell-based; settings: only at >17× the dosing range to treat C. difficile
Description: as §1

Water solubility = format: physicochemical; settings: room temperature

For “5′-G*T*T*C*A*T*TAAA TCACC TCC T*G*C*T*T*T*A3′ (GTTCATTAAATCACCTCCTGCTTT; listed as DNA, chemistry not fully specified) [anti-dnaE oligonucleotide, 2′-O-methyl phosphorothioate (PTO) gapmer ASO targeting dnaE]”, which dnaE expression (dnaE) is on record?
The dnaE expression was “decreases dnaE expression”.

With `c1cc2c([n+](CCCCCCCCCC[n+]3cccc4c3CCCC4)c1)CCCC2` [CAB-964] as the compound, how does the “toxicity to cultured human intestinal epithelial cells” value [1] read?
Its value is “non-toxic”.

And the “growth reduction of E. faecalis” value (E. faecalis)?
Its value is 7%.

And the “growth reduction of B. fragilis” value (B. fragilis)?
The value was 7%.

And the anti-C. difficile activity [2]?
Its anti-C. difficile activity is “no anti-C. difficile activity”.

And the “growth reduction of E. coli” value (E. coli)?
The value was 7%.

What about the solubility (Water solubility) of the same compound?
Its solubility is 26 mg/mL.
